In patent publication US7803801B2, “Aminopyridine compounds having Syk inhibitory activity” (Japan Tobacco, Inc., priority 2005, dated 2010):
Counter-ions that a name gives are not always drawn. Like-named read-outs stand apart in the source and are kept apart here.

Columns and labels:
[1] = system: cultured human mast cells; experiment: Degranulation inhibition test using cultured human mast cells (IgE cross-linking, β-Hexosaminidase release); format: cell-based; conditions: read-out: human degranulation ave. IC50
How it was run: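 Degranulation was triggered by anti-hIgE (10 μg/mL final, 30 min, 37 °C) after a 10-min compound pretreatment (DMSO 0.1%) of cord-blood CD34+-derived mast cells primed 5 days with IL-4 and IgE. β-Hexosaminidase in supernatant was measured with p-nitrophenyl-GlcNAc substrate (A405), expressed against water-lysed total; IC50 (M).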

[2] = biological target: GST-Syk Full Protein (human) (Homo sapiens, UniProt P43405); experiment: Syk kinase inhibition test (HTRF method); format: biochemical
How it was run: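 HTRF read-out: after EDTA termination and 1 h with XL665-streptavidin and Eu-anti-phosphotyrosine, the 665/620 nm ratio was measured. The reaction ran 30 min at 20–25 °C with final 6.4 nM human GST-Syk, 250 nM biotinylated peptide, 100 μM ATP, pH 7.0 HEPES buffer, 2% DMSO.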

[3] = Mast cell, cultured human mast cells, anti-hIgE stimulation, β-Hexosaminidase index, average
[4] = HTRF, 100 μM ATP, 30 min room temperature, average, read-out: sykHTRF ave IC50
[5] = Mast cell, Tables 2-x, thiophene compounds B, cultured human mast cells
[6] = Tables 2-x, thiophene compounds B, read-out: sykHTRK ave IC50
[7] = Mast cell, Tables 1-x, compounds A, cultured human mast cells
[8] = Tables 1-x, compounds A, read-out: sykHTRF ave IC50

In the case of NC(=O)[C@H]1CC[C@H](c2ncc(-c3cccc(Nc4cc(Cl)ccn4)n3)s2)CC1 [Compound A-338, trans-4-{5-[6-(4-chloropyridin-2-ylamino)pyridin-2-yl]thiazol-2-yl}cyclohexanecarboxamide], the IC50 [1, 3] is reported as under 100 nM and the IC50 [2, 4] is reported as under 100 nM.
For CC(=O)c1ccnc(Nc2cccc(-c3ccc(C(C)=O)s3)n2)c1 [Compound B-83], the IC50 [1, 5] was 100 to 1000 nM and the IC50 [2, 6] was 100 to 1000 nM.
Cc1ccnc(Nc2cccc(-c3cnc(N(C)C4CCOCC4)s3)n2)c1 [Compound A-470, N-methyl-N-{5-[6-(4-methylpyridin-2-ylamino)pyridin-2-yl]thiazol-2-yl}-N-tetrahydropyran-4-ylamine] was tested, and the IC50 [1, 7] was 100 to 1000 nM and the IC50 [2, 8] was under 100 nM.
For Cc1ccnc(Nc2cccc(-c3ccc(C(C)N)s3)n2)c1 (stereo not drawn) [Compound B-92], the IC50 [1, 5] was 100 to 1000 nM and the IC50 [2, 6] was 100 to 1000 nM.
Cc1ccnc(Nc2cccc(-c3cnc(CC4CCC(C(=O)N5CCC(O)CC5)CC4)s3)n2)c1 (stereo not drawn) [Compound A-269] was tested, and the IC50 [1, 3] was 100 to 1000 nM and the IC50 [2, 4] was 100 to 1000 nM.
Cc1ccnc(Nc2cccc(-c3cnc(CC(C)(C)CCO)s3)n2)c1 [Compound A-158, 3,3-dimethyl-4-{5-[6-(4-methylpyridin-2-ylamino)pyridin-2-yl]thiazol-2-yl}butan-1-ol] gave an IC50 [1, 3] of 100 to 1000 nM and an IC50 [2, 4] of under 100 nM.
In the case of Cc1ccnc(Nc2cccc(-c3cnc(N4CCC(N(C)C(=O)CO)CC4)s3)n2)c1 [Compound A-483, 2-hydroxy-N-methyl-N-(1-{5-[6-(4-methylpyridin-2-ylamino)pyridin-2-yl]thiazol-2-yl}piperidin-4-yl)acetamide], the IC50 [1, 7] is reported as 100 to 1000 nM and the IC50 [2, 8] is reported as under 100 nM.
For Cc1ccnc(Nc2cccc(-c3cnc(CCc4cccc(C(=O)O)c4)s3)n2)c1 [Compound A-276], the IC50 [1, 3] was over 1000 nM and the IC50 [2, 4] was 100 to 1000 nM.
Molecule Cc1ccnc(Nc2cccc(-c3cnc(N4CCC(OCC(=O)O)CC4)s3)n2)c1 [Compound A-594, (1-{5-[6-(4-methylpyridin-2-ylamino)pyridin-2-yl]thiazol-2-yl}piperidin-4-yloxy)acetic acid dihydrochloride] has an IC50 [1, 7] of over 1000 nM and an IC50 [2, 8] of under 100 nM.
In the case of CC(=NO)c1cc(C)c(-c2cccc(Nc3cc(C)ccn3)n2)s1 [Compound B-7], the IC50 [1, 5] is reported as over 1000 nM and the IC50 [2, 6] is reported as 100 to 1000 nM.
With Cc1ccnc(Nc2cccc(-c3ccc(C)s3)n2)c1 [Compound B-13] the IC50 [1, 5] was over 1000 nM and the IC50 [2, 6] was 100 to 1000 nM.
Cc1ccnc(Nc2cccc(-c3cnc(CNCC4(O)CCCCC4)s3)n2)c1 [Compound A-196] was tested, and the IC50 [1, 3] was 100 to 1000 nM and the IC50 [2, 4] was 100 to 1000 nM.
For Cc1ccnc(Nc2cccc(-c3cc(C)c(C(=O)NC(C)(C)CO)s3)n2)c1 [Compound B-88], the IC50 [1, 5] was 100 to 1000 nM and the IC50 [2, 6] was 100 to 1000 nM.
With CO[C@@H]1CCN(c2ncc(-c3cccc(Nc4cc(C)ccn4)n3)s2)C1 [Compound A-490, N-{6-[2-((R)-3-methoxypyrrolidin-1-yl)thiazol-5-yl]pyridin-2-yl}-N-(4-methylpyridin-2-yl)amine] the IC50 [1, 7] was 100 to 1000 nM and the IC50 [2, 8] was under 100 nM.
CO/N=C(\C)c1ccc(-c2cccc(Nc3cc(N(C)C)ncn3)n2)s1 [Compound B-32] gave an IC50 [1, 5] of over 1000 nM and an IC50 [2, 6] of over 1000 nM.
Cc1ccnc(Nc2cccc(-c3cnc(C4CCN(C(=O)NCCO)CC4)s3)n2)c1 [Compound A-266] showed an IC50 [1, 3] of 100 to 1000 nM and an IC50 [2, 4] of 100 to 1000 nM.
CC(=O)c1ccc(-c2cccc(Nc3cc(N(C)C)ncn3)n2)s1 [Compound B-26] showed an IC50 [1, 5] of over 1000 nM and an IC50 [2, 6] of 100 to 1000 nM.
For Cc1ccnc(Nc2cccc(-c3cnc([C@H]4CC[C@H](C(=O)N5CCNC(=O)C5)CC4)s3)n2)c1 [Compound A-283, 4-(trans-4-{5-[6-(4-methylpyridin-2-ylamino)pyridin-2-yl]thiazol-2-yl}cyclohexanecarbonyl)piperazin-2-one], the IC50 [1, 3] was over 1000 nM and the IC50 [2, 4] was under 100 nM.
CC(=O)N[C@@H](C)c1nc(N)c(-c2cccc(Nc3cc(C)ccn3)n2)s1 [Compound A-115] gave an IC50 [1, 3] of over 1000 nM and an IC50 [2, 4] of over 1000 nM.
Cc1ccnc(Nc2cccc(-c3cnc(N4CCC(C(=O)NCCO)CC4)s3)n2)c1 [Compound A-5, N-(2-hydroxyethyl)-1-{5-[6-(4-methylpyridin-2-ylamino)pyridin-2-yl]thiazol-2-yl}piperidine-4-carboxamide] gave an IC50 [1, 3] of 100 to 1000 nM and an IC50 [2, 4] of under 100 nM.
With CC(=O)N1CCC(c2ncc(-c3cccc(Nc4cc(C)ccn4)n3)s2)CC1 [Compound A-94] the IC50 [1, 3] was 100 to 1000 nM and the IC50 [2, 4] was 100 to 1000 nM.
With Cc1ccnc(Nc2cccc(-c3cnc(N4CCC[C@@H](CC(=O)O)C4)s3)n2)c1 [Compound A-567, ((S)-1-{5-[6-(4-methylpyridin-2-ylamino)pyridin-2-yl]thiazol-2-yl}piperidin-3-yl)acetic acid] the IC50 [1, 7] was 100 to 1000 nM and the IC50 [2, 8] was under 100 nM.
With Cc1ccnc(Nc2cccc(-c3ccc(C#N)s3)n2)c1 [Compound B-59] the IC50 [1, 5] was over 1000 nM and the IC50 [2, 6] was 100 to 1000 nM.
For Cc1ccnc(Nc2cccc(-c3cnc(N(C)CCO)s3)n2)c1 [Compound A-519, 2-(N-methyl-N-{5-[6-(4-methylpyridin-2-ylamino)pyridin-2-yl]thiazol-2-yl}amino)ethanol], the IC50 [1, 7] was under 100 nM and the IC50 [2, 8] was under 100 nM.
In the case of Cc1ccnc(Nc2cccc(-c3cnc(N4CCN(S(N)(=O)=O)CC4)s3)n2)c1 [Compound A-421, 4-{5-[6-(4-methylpyridin-2-ylamino)pyridin-2-yl]thiazol-2-yl}piperazine-1-sulfonamide], the IC50 [1, 7] is reported as 100 to 1000 nM and the IC50 [2, 8] is reported as under 100 nM.
With COC(=O)[C@H]1CC[C@H](c2ncc(-c3cccc(Nc4cc(C)ccn4)n3)s2)CC1 [Compound A-6, trans-4-{5-[6-(4-methylpyridin-2-ylamino)pyridin-2-yl]thiazol-2-yl}cyclohexanecarboxylic acid methyl ester] the IC50 [1, 3] was 100 to 1000 nM and the IC50 [2, 4] was 100 to 1000 nM.
For Cc1ccnc(Nc2cccc(-c3cnc(CN4CCN(CCO)CC4)s3)n2)c1 [Compound A-217], the IC50 [1, 3] was over 1000 nM and the IC50 [2, 4] was 100 to 1000 nM.
CCOC(=O)c1ncc(-c2cccc(Nc3cc(C)ccn3)n2)s1 [Compound A-28, 5-[6-(4-methylpyridin-2-ylamino)pyridin-2-yl]thiazole-2-carboxylic acid ethyl ester] was tested, and the IC50 [1, 3] was 100 to 1000 nM and the IC50 [2, 4] was under 100 nM.
With CCOC(=O)c1cc(Nc2cc(C)ccn2)nc(-c2ccc(C(C)=O)s2)c1 [Compound B-77] the IC50 [1, 5] was over 1000 nM and the IC50 [2, 6] was over 1000 nM.
Cc1ccnc(Nc2cccc(-c3cnc(N4CCN(CC(=O)O)C(=O)C4)s3)n2)c1 [Compound A-464, (4-{5-[6-(4-methylpyridin-2-ylamino)pyridin-2-yl]thiazol-2-yl}-2-oxopiperazin-1-yl)acetic acid dihydrochloride] gave an IC50 [1, 7] of over 1000 nM and an IC50 [2, 8] of under 100 nM.
Molecule Cc1ccnc(Nc2cccc(-c3cnc(C4CCN(C(=O)c5ccncc5)CC4)s3)n2)c1 [Compound A-306] has an IC50 [1, 3] of 100 to 1000 nM and an IC50 [2, 4] of 100 to 1000 nM.
With CC(=O)N1CCC(N(C)c2ncc(-c3cccc(Nc4cc(C)ccn4)n3)s2)CC1 [Compound A-458, 1-[4-(N-methyl-N-{5-[6-(4-methylpyridin-2-ylamino)pyridin-2-yl]thiazol-2-yl}amino)piperidin-1-yl]ethanone] the IC50 [1, 7] was 100 to 1000 nM and the IC50 [2, 8] was under 100 nM.
CCC(=O)N1CCN(c2ncc(-c3cccc(Nc4cc(C)ccn4)n3)s2)CC1 [Compound A-440, 1-(4-{5-[6-(4-methylpyridin-2-ylamino)pyridin-2-yl]thiazol-2-yl}piperazin-1-yl)propan-1-one] gave an IC50 [1, 7] of 100 to 1000 nM and an IC50 [2, 8] of under 100 nM.
Work on Cc1ccnc(Nc2cccc(-c3cnc(C4CCN(C)CC4)s3)n2)c1 [Compound A-183] yielded an IC50 [1, 3] of over 1000 nM and an IC50 [2, 4] of 100 to 1000 nM.
Cc1ccnc(Nc2cccc(-c3cnc(N4CCC(CC(=O)NCCO)CC4)s3)n2)c1 [Compound A-506, N-(2-hydroxyethyl)-2-(1-{5-[6-(4-methylpyridin-2-ylamino)pyridin-2-yl]thiazol-2-yl}piperidin-4-yl)acetamide] gave an IC50 [1, 7] of 100 to 1000 nM and an IC50 [2, 8] of under 100 nM.
Work on Cc1ccnc(Nc2cccc(-c3cnc(CN4CCNC(=O)C4)s3)n2)c1 [Compound A-351, potassium carbonate 4-{5-[6-(4-methylpyridin-2-ylamino)pyridin-2-yl]thiazol-2-ylmethyl}piperazin-2-one] yielded an IC50 [1] of 100 to 1000 nM and an IC50 [2, 4] of under 100 nM.
COc1ccnc(Nc2cccc(-c3cnc([C@H]4CC[C@H](C(=O)O)CC4)s3)n2)c1 [Compound A-188, trans-4-{5-[6-(4-methoxypyridin-2-ylamino)pyridin-2-yl]thiazol-2-yl}cyclohexanecarboxylic acid] was tested, and the IC50 [1, 3] was 100 to 1000 nM and the IC50 [2, 4] was under 100 nM.
Work on Cc1ccnc(Nc2cccc(-c3cnc(CN4CCOCC4)s3)n2)c1 [Compound A-193] yielded an IC50 [1, 3] of 100 to 1000 nM and an IC50 [2, 4] of 100 to 1000 nM.
Cc1ccnc(Nc2cccc(-c3ccc(C(=O)NCCO)s3)n2)c1 [Compound B-24] was tested, and the IC50 [1, 5] was 100 to 1000 nM and the IC50 [2, 6] was 100 to 1000 nM.
Work on CC(=O)c1ccc(-c2cccc(Nc3ccccn3)n2)s1 [Compound B-67] yielded an IC50 [1, 5] of over 1000 nM and an IC50 [2, 6] of 100 to 1000 nM.
Cc1ccnc(Nc2cccc(-c3cnc([C@H]4CC[C@H](C(=O)N5CCC(O)C5)CC4)s3)n2)c1 (stereo partly drawn) [Compound A-282, (3-hydroxypyrrolidin-1-yl)-(trans-4-{5-[6-(4-methylpyridin-2-ylamino)pyridin-2-yl]thiazol-2-yl}cyclohexyl)methanone] was tested, and the IC50 [1, 3] was 100 to 1000 nM and the IC50 [2, 4] was under 100 nM.
With Cc1ccnc(Nc2cccc(-c3cnc(N4CCC(C(=O)O)C4)s3)n2)c1 (stereo not drawn) [Compound A-576, 1-{5-[6-(4-methylpyridin-2-ylamino)pyridin-2-yl]thiazol-2-yl}pyrrolidine-3-carboxylic acid dihydrochloride] the IC50 [1, 7] was over 1000 nM and the IC50 [2, 8] was under 100 nM.
